Measured values as given in patent US8916567B2, “Certain crystalline hydrates, pharmaceutical compositions thereof and methods for preparation and use thereof” (Universal Technology Alliance, Inc., priority 2009, dated 2014).

How the values were obtained:
E. feacium = assay: Minimum inhibitory concentration (MIC) in vitro, agar dilution method; format: cell-based; details: hydrate
Outline: (§1)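 CLSI agar dilution; clinical isolates, Sichuan/Beijing, Mar 2007–May 2008. Stock in DMSO, diluted with sterile water. Read-out: MIC per strain, summarised as MIC50/MIC90/range.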

[1] = tested on: Staphylococcus aureus MRSA; assay: as above; format: cell-based; details: hydrate
Outline: as §1

S. epidermidis MRSE = assay: as above; format: cell-based; details: hydrate
Outline: as §1

E. feacalis = assay: as above; format: cell-based; details: hydrate
Outline: as §1

S. epidermidis MSSE = assay: as above; format: cell-based; details: hydrate
Outline: as §1

[2] = tested on: Staphylococcus aureus MSSA; assay: as above; format: cell-based; details: hydrate
Outline: as §1

[3] = Stability under high temperature and high humidity (relative humidity 75%, 40° C.); format: physicochemical; details: for Related substances (%): HPLC; for TGA (%): listed as ¾ hydrate, hydrate
Protocol: In order to further evaluate the effect of temperature, humidity and light on the quality of the crystalline compounds of the present disclosure, the hydrates were placed in a dessicator with a relative humidity of 75% and at a constant temperature of 40° C. The samples were then collected at 1, 2, 3, and 6 months. Results are shown in Tables 10-14, wherein the “related substances” mean all of the ingredients in a sample except the active material. The content of the related substances in a sample was measure by HPLC in accordance to the Chinese Pharmacopeia (2005 edition, Part II, Appendix V D).

Staphylococcus aureus = assay: Minimum inhibitory concentration (MIC) in vitro, agar dilution method, quality control strain; format: cell-based; details: strain S. AT C C25923 (Table 7 No. 1); hydrate
Outline: as §1

[4] = E. feacium (5 strains), clinically isolated
[5] = S. MRSA (10 strains), clinically isolated
[6] = S. ep MRSE (10 strains), clinically isolated
[7] = E. feacalis (5 strains), clinically isolated
[8] = S. ep MSSE (10 strains), clinically isolated
[9] = S. MSSA (11 strains), clinically isolated

CC(=O)NC[C@H]1CN(c2ccc(N3CCN(c4ccccc4)CC3)c(F)c2)C(=O)O1 [3/4 hydrate, (S)—[N-3-(3′-fluoro-4′-(4″-phenylpiperazinyl))phenyl-2-oxo-5-oxazolidinyl]methyl acetamide 3/4 hydrate]
MIC50 (E. feacium; [4]): 2 µg/mL
MIC90 (E. feacium; [4]): 4 µg/mL
MICrange (E. feacium; [4]): 1 to 4 µg/mL
MIC (E. feacium; strain Efm 98 (Table 8 No. 21)): 2 µg/mL
MIC (E. feacium; strain Efm 171 (Table 8 No. 25)): 2 µg/mL
MIC (E. feacium; strain Efm 197 (Table 8 No. 22)): 1 µg/mL
MIC (E. feacium; strain Efm N3 (Table 8 No. 23)): 4 µg/mL
MIC (E. feacium; strain Efm N4 (Table 8 No. 24)): 4 µg/mL
MIC50 [1, 5]: 1 µg/mL
MIC90 [1, 5]: 1 µg/mL
MICrange [1, 5]: 0.5 to 1 µg/mL
MIC ([1]; strain S. MRSA 29 (Table 7 No. 15)): 0.5 µg/mL
MIC ([1]; strain S. MRSA 101 (Table 7 No. 14)): 1 µg/mL
MIC ([1]; strain S. MRSA 201 (Table 7 No. 13)): 1 µg/mL
MIC ([1]; strain S. MRSA B27 (Table 7 No. 21)): 0.5 µg/mL
MIC ([1]; strain S. MRSA B105 (Table 7 No. 17)): 1 µg/mL
MIC ([1]; strain S. MRSA B143 (Table 7 No. 19)): 1 µg/mL
MIC ([1]; strain S. MRSA B151 (Table 7 No. 20)): 1 µg/mL
MIC ([1]; strain S. MRSA B164 (Table 7 No. 16)): 1 µg/mL
MIC ([1]; strain S. MRSA B199 (Table 7 No. 22)): 0.5 µg/mL
MIC ([1]; strain S. MRSA B617 (Table 7 No. 18)): 1 µg/mL
MIC50 (S. epidermidis MRSE; [6]): 1 µg/mL
MIC90 (S. epidermidis MRSE; [6]): 1 µg/mL
MICrange (S. epidermidis MRSE; [6]): 1 µg/mL
MIC (S. epidermidis MRSE; strain S. ep MRSE4 (Table 8 No. 9)): 1 µg/mL
MIC (S. epidermidis MRSE; strain S. ep MRSE20 (Table 8 No. 6)): 1 µg/mL
MIC (S. epidermidis MRSE; strain S. ep MRSE87 (Table 8 No. 13)): 1 µg/mL
MIC (S. epidermidis MRSE; strain S. ep MRSE90 (Table 8 No. 10)): 1 µg/mL
MIC (S. epidermidis MRSE; strain S. ep MRSE101 (Table 8 No. 7)): 1 µg/mL
MIC (S. epidermidis MRSE; strain S. ep MRSE105 (Table 8 No. 11)): 1 µg/mL
MIC (S. epidermidis MRSE; strain S. ep MRSE140 (Table 8 No. 14)): 1 µg/mL
MIC (S. epidermidis MRSE; strain S. ep MRSE142 (Table 8 No. 12)): 1 µg/mL
MIC (S. epidermidis MRSE; strain S. ep MRSE210 (Table 8 No. 15)): 1 µg/mL
MIC (S. epidermidis MRSE; strain S. ep MRSE211 (Table 8 No. 8)): 1 µg/mL
MIC50 (E. feacalis; [7]): 2 µg/mL
MIC90 (E. feacalis; [7]): 4 µg/mL
MICrange (E. feacalis; [7]): 1 to 4 µg/mL
MIC (E. feacalis; strain Efa 54 (Table 8 No. 20)): 2 µg/mL
MIC (E. feacalis; strain Efa 116 (Table 8 No. 16)): 2 µg/mL
MIC (E. feacalis; strain Efa 907 (Table 8 No. 19)): 1 µg/mL
MIC (E. feacalis; strain Efa 3006 (Table 8 No. 18)): 2 µg/mL
MIC (E. feacalis; strain Efa 33748 (Table 8 No. 17)): 4 µg/mL
MIC50 (S. epidermidis MSSE; [8]): 0.5 µg/mL
MIC90 (S. epidermidis MSSE; [8]): 1 µg/mL
MICrange (S. epidermidis MSSE; [8]): 0.5 to 1 µg/mL
MIC (S. epidermidis MSSE; strain S. ep MSSE87 (Table 7 No. 23)): 0.5 µg/mL
MIC (S. epidermidis MSSE; strain S. ep MSSE88 (Table 8 No. 5)): 1 µg/mL
MIC (S. epidermidis MSSE; strain S. ep MSSE113 (Table 7 No. 24)): 0.5 µg/mL
MIC (S. epidermidis MSSE; strain S. ep MSSE116 (Table 7 No. 25)): 0.5 µg/mL
MIC (S. epidermidis MSSE; strain S. ep MSSE118 (Table 8 No. 2)): 0.5 µg/mL
MIC (S. epidermidis MSSE; strain S. ep MSSE119 (Table 7 No. 27)): 1 µg/mL
MIC (S. epidermidis MSSE; strain S. ep MSSE137 (Table 8 No. 4)): 1 µg/mL
MIC (S. epidermidis MSSE; strain S. ep MSSE140 (Table 8 No. 3)): 0.5 µg/mL
MIC (S. epidermidis MSSE; strain S. ep MSSE142 (Table 7 No. 26)): 1 µg/mL
MIC (S. epidermidis MSSE; strain S. ep MSSE153 (Table 8 No. 1)): 1 µg/mL
MIC50 [2, 9]: 1 µg/mL
MIC90 [2, 9]: 1 µg/mL
MICrange [2, 9]: 0.5 to 1 µg/mL
MIC ([2]; strain S. MSSA 123 (Table 7 No. 3)): 1 µg/mL
MIC ([2]; strain S. MSSA 187 (Table 7 No. 7)): 1 µg/mL
MIC ([2]; strain S. MSSA 195 (Table 7 No. 6)): 1 µg/mL
MIC ([2]; strain S. MSSA 195 (Table 7 No. 12)): 1 µg/mL
MIC ([2]; strain S. MSSA 201 (Table 7 No. 11)): 0.5 µg/mL
MIC ([2]; strain S. MSSA 232 (Table 7 No. 2)): 1 µg/mL
MIC ([2]; strain S. MSSA 275 (Table 7 No. 10)): 0.5 µg/mL
MIC ([2]; strain S. MSSA 466 (Table 7 No. 8)): 0.5 µg/mL
MIC ([2]; strain S. MSSA 519 (Table 7 No. 9)): 1 µg/mL
MIC ([2]; strain S. MSSA 520 (Table 7 No. 4)): 1 µg/mL
MIC ([2]; strain S. MSSA 580 (Table 7 No. 5)): 1 µg/mL
Characters ([3]; 0 month): White powder
Related substances (%) ([3]; 0 month): 0.94%
TGA (%) ([3]; 0 month): 3.10%
Characters ([3]; 1 month): White powder
Related substances (%) ([3]; 1 month): 0.88%
TGA (%) ([3]; 1 month): 3.11%
Characters ([3]; 2 months): White powder
Related substances (%) ([3]; 2 months): 0.90%
TGA (%) ([3]; 2 months): 3.10%
Characters ([3]; 3 months): White powder
Related substances (%) ([3]; 3 months): 0.92%
TGA (%) ([3]; 3 months): 3.09%
Characters ([3]; 6 months): White powder
Related substances (%) ([3]; 6 months): 0.93%
TGA (%) ([3]; 6 months): 3.10%
MIC (Staphylococcus aureus): 1 µg/mL
